Laboratory results taken from patent US20240043435A1, “TYK-2 INHIBITOR” (BEIGENE, LTD., priority 2020, published 2024).

Tests used:
[1] = molecular target: T1, TYK2-JH2 (aa 575-869, in-house) protein (Homo sapiens, UniProt P29597); test: TYK2-JH2 biochemical assay (HTRF probe displacement); type: binding; details: Biochemical assay; read-out: TYK2-JH2 IC50
T1 construct: TYK2-JH2 (aa 575-869, in-house) protein; made in house
Procedure, shortened: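 Recombinant TYK2-JH2 (0.2 nM) was pre-incubated 0.5 h at room temperature with compounds (10 doses, 5-fold dilution; 500× DMSO stocks from 500 uM) in 20 mM HEPES pH 7.5, 10 mM MgCl2, 0.005% BSA, 2 mM DTT, 0.015% Brij-35. Probe displacement was read by HTRF (ex337, em620/665 nm); IC50 from four-parameter logistic fit.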

pSTAT5/GM-CSF = pSTAT5/GM-CSF cellular assay (JAK2 selectivity); type: cell-based; details: for Selectivity fold (TYK2/JAK2): pSTAT5/GM-CSF IC50 over pSTAT4/IL-12 IC50
[2] = system: JAK2, TYK2/p-STAT4 (Tyr693) activated by IL-12 in NK-92 cell line; test: IL-12-JAK2, TYK2/p-STAT4 (Tyr693) inhibition IC50 cellular assay; type: cell-based; details: NK92, Cellular assay; read-out: pSTAT4/IL-12 IC50
Procedure, shortened: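 NK-92 cells were starved overnight without IL-2 and preincubated 1 h at 37° C with compound (8 doses, 10000–0.61 nM, 4-fold, 0.2% DMSO). They were then stimulated with IL-12 (40 ng/ml final) for 30 min. Lysate p-STAT4 (Tyr693) was read by AlphaLISA SureFire; IC50 from four-parameter logistic fit.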

T1 sequence (P29597 575-869): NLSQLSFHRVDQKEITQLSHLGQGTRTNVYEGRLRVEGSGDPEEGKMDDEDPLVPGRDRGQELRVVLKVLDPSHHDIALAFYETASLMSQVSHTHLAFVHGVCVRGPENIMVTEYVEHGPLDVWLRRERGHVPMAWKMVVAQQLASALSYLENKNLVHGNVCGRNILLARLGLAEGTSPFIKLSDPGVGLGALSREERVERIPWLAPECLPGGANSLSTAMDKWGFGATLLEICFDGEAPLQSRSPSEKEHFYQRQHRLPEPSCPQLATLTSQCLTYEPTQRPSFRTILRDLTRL

SMILES | IC50 [1] [nM] | IC50 (pSTAT5/GM-CSF) [nM] | IC50 [2] [nM] | Selectivity fold (TYK2/JAK2) (pSTAT5/GM-CSF) [fold]
CC(=O)Nc1cc(Nc2cc(C)cc(S(C)(=O)=O)n2)c(-c2ccc3c(n2)OCC(C)(C)O3)cn1 [Example Q21, N-(5-(2,2-dimethyl-2,3-dihydro-[1,4]dioxino[2,3-b]pyridin-6-yl)-4-((4-methyl-6-(methylsulfonyl)pyridin-2-yl)amino)pyridin-2-yl)acetamide] | 0.037 | 1570 | 0.411 | 3824
CC(=O)Nc1cc(Nc2cc(C3CCOCC3)cc(S(C)(=O)=O)n2)c(-c2ccc3c(n2)OCC(C)(C)O3)cn1 [Example Q23, N-(5-(2,2-dimethyl-2,3-dihydro-[1,4]dioxino[2,3-b]pyridin-6-yl)-4-((6-(methylsulfonyl)-4-(tetrahydro-2H-pyran-4-yl)pyridin-2-yl)amino)pyridin-2-yl)acetamide] | 0.028 | 8100 | 0.605 | 13390
[2H]C([2H])([2H])Oc1cc(Nc2cc(NC(C)=O)ncc2-c2ccc3c(n2)OCC(C)(C)O3)nc(S(C)(=O)=O)c1 [Example Q24, N-(5-(2,2-dimethyl-2,3-dihydro-[1,4]dioxino[2,3-b]pyridin-6-yl)-4-((4-(methoxy-d3)-6-(methylsulfonyl)pyridin-2-yl)amino)pyridin-2-yl)acetamide] | 0.033 | 620 | 0.559 | 1109
COc1cc(S(C)(=O)=O)nc(Nc2cc(NC(C)=O)ncc2-c2ccc3c(n2)OCC(C)(C)O3)c1OC [Example Q26, N-(4-((3,4-dimethoxy-6-(methylsulfonyl)pyridin-2-yl)amino)-5-(2,2-dimethyl-2,3-dihydro-[1,4]dioxino[2,3-b]pyridin-6-yl)pyridin-2-yl)acetamide] | 0.032 | 700 | 1.53 | 457
COC1CN(c2cc(Nc3cc(NC(C)=O)ncc3-c3ccc4c(n3)OCC(C)(C)O4)nc(S(C)(=O)=O)c2)C1 [Example Q49, N-(5-(2,2-dimethyl-2,3-dihydro-[1,4]dioxino[2,3-b]pyridin-6-yl)-4-((4-(3-methoxyazetidin-1-yl)-6-(methylsulfonyl)pyridin-2-yl)amino)pyridin-2-yl)acetamide] | 0.029 | 379 | 0.827 | 458
COC1CCN(c2cc(Nc3cc(NC(C)=O)ncc3-c3ccc4c(n3)OCC(C)(C)O4)nc(S(C)(=O)=O)c2)CC1 [Example Q52, N-(5-(2,2-dimethyl-2,3-dihydro-[1,4]dioxino[2,3-b]pyridin-6-yl)-4-((4-(4-methoxypiperidin-1-yl)-6-(methylsulfonyl)pyridin-2-yl)amino)pyridin-2-yl)acetamide] | 0.038 | 3420 | 1.33 | 2571
CO[C@H]1C[C@@H](c2cc(Nc3cc(NC(C)=O)ncc3-c3ccc4c(n3)OCC(C)(C)O4)nc(S(C)(=O)=O)c2)C1 [Example Q53, N-(5-(2,2-dimethyl-2,3-dihydro-[1,4]dioxino[2,3-b]pyridin-6-yl)-4-((4-((cis)-3-methoxycyclobutyl)-6-(methylsulfonyl)pyridin-2-yl)amino)pyridin-2-yl)acetamide] | 0.047 | > 10000 | 0.581 | >17211
CO[C@H]1C[C@H](c2cc(Nc3cc(NC(C)=O)ncc3-c3ccc4c(n3)OCC(C)(C)O4)nc(S(C)(=O)=O)c2)C1 [Example Q54] | 0.037 | 3980 | 0.56 | 7116
CC(=O)Nc1cc(Nc2cc(-c3cnccc3C)cc(S(C)(=O)=O)n2)c(-c2ccc3c(n2)OCC(C)(C)O3)cn1 [Example Q62, N-(5-(2,2-dimethyl-2,3-dihydro-[1,4]dioxino[2,3-b]pyridin-6-yl)-4-((4-methyl-6′-(methylsulfonyl)-[3,4′-bipyridin]-2′-yl)amino)pyridin-2-yl)acetamide] | 0.047 | > 10000 | 1.79 | >5586
CC(=O)Nc1cc(Nc2cc(C#N)cc(S(C)(=O)=O)n2)c(-c2ccc3c(n2)OCC(C)(C)O3)cn1 [Example Q63, N-(4-((4-cyano-6-(methylsulfonyl)pyridin-2-yl)amino)-5-(2,2-dimethyl-2,3-dihydro-[1,4]dioxino[2,3-b]pyridin-6-yl)pyridin-2-yl)acetamide] | 0.051 | 459 | 0.755 | 608
CC(=O)Nc1cc(Nc2nc(S(C)(=O)=O)cn(C)c2=O)c(-c2ccc3c(n2)OCC(C)(C)O3)cn1 [Example Q64, N-(5-(2,2-dimethyl-2,3-dihydro-[1,4]dioxino[2,3-b]pyridin-6-yl)-4-((4-methyl-6-(methylsulfonyl)-3-oxo-3,4-dihydropyrazin-2-yl)amino)pyridin-2-yl)acetamide] | 0.034 | > 10000 | 4.61 | >2169
CO[C@H]1CCCN(c2cc(Nc3cc(NC(C)=O)ncc3-c3ccc4c(n3)OCC(C)(C)O4)nc(S(C)(=O)=O)c2)C1 [Example Q65, (S)-N-(5-(2,2-dimethyl-2,3-dihydro-[1,4]dioxino[2,3-b]pyridin-6-yl)-4-((4-(3-methoxypiperidin-1-yl)-6-(methylsulfonyl)pyridin-2-yl)amino)pyridin-2-yl)acetamide] | 0.029 | 1640 | 0.685 | 2397
CO[C@@H]1CCCN(c2cc(Nc3cc(NC(C)=O)ncc3-c3ccc4c(n3)OCC(C)(C)O4)nc(S(C)(=O)=O)c2)C1 [Example Q66, (R)-N-(5-(2,2-dimethyl-2,3-dihydro-[1,4]dioxino[2,3-b]pyridin-6-yl)-4-((4-(3-methoxypiperidin-1-yl)-6-(methylsulfonyl)pyridin-2-yl)amino)pyridin-2-yl)acetamide] | 0.029 | 3050 | 0.792 | 3845

The next molecules have a lower IC50 [1] than those just listed; values first:

IC50 [1] [nM] | IC50 (pSTAT5/GM-CSF) [nM] | IC50 [2] [nM] | SMILES | Selectivity fold (TYK2/JAK2) (pSTAT5/GM-CSF) [fold]
0.022 | 1770 | 0.16 | CC(=O)Nc1cc(Nc2cc(C)cc(S(C)(=O)=O)n2)c(-c2cc3n(n2)CCOC3)cn1 [Example Q20, N-(5-(6,7-dihydro-4H-pyrazolo[5,1-c][1,4]oxazin-2-yl)-4-((4-methyl-6-(methylsulfonyl)pyridin-2-yl)amino)pyridin-2-yl)acetamide] | 11043
0.025 | 3960 | 0.584 | CC(=O)Nc1cc(Nc2cc(N3CCOCC3)cc(S(C)(=O)=O)n2)c(-c2ccc3c(n2)OCC(C)(C)O3)cn1 [Example Q22, N-(5-(2,2-dimethyl-2,3-dihydro-[1,4]dioxino[2,3-b]pyridin-6-yl)-4-((6-(methylsulfonyl)-4-morpholinopyridin-2-yl)amino)pyridin-2-yl)acetamide] | 6779
0.026 | > 10000 | 0.329 | CC(=O)Nc1cc(Nc2cncc(S(C)(=O)=O)n2)c(-c2ccc3c(n2)OC(C)(C)CO3)cn1 [Example Q28, N-(5-(3,3-dimethyl-2,3-dihydro-[1,4]dioxino[2,3-b]pyridine-6-yl)-4-((6-(methylsulfonyl)pyrazin-2-yl)amino)pyridine-2-yl)acetamide] | >30395
0.02 | 1810 | 0.679 | CC(=O)Nc1cc(Nc2cc(N3CCOC[C@@H]3C)cc(S(C)(=O)=O)n2)c(-c2ccc3c(n2)OCC(C)(C)O3)cn1 [Example Q35, (S)—N-(5-(2,2-dimethyl-2,3-dihydro-[1,4]dioxino[2,3-b]pyridin-6-yl)-4-((4-(3-methyl-morpholino)-6-(methylsulfonyl)pyridin-2-yl)amino)-pyridin-2-yl)acetamide] | 2665
0.025 | 2350 | 2.84 | COCC1CCN(c2cc(Nc3cc(NC(C)=O)ncc3-c3ccc4c(n3)OCC(C)(C)O4)nc(S(C)(=O)=O)c2)C1 (centres unmarked) [Example Q73, N-(5-(2,2-dimethyl-2,3-dihydro-[1,4]dioxino[2,3-b]pyridin-6-yl)-4-((4-(3-(methoxymethyl)pyrrolidin-1-yl)-6-(methylsulfonyl)pyridin-2-yl)amino)pyridin-2-yl)acetamide] | 828
0.024 | 473 | 0.637 | CC(=O)Nc1cc(Nc2cc(C3CCCOC3)cc(S(C)(=O)=O)n2)c(-c2ccc3c(n2)OCC(C)(C)O3)cn1 (centres unmarked) [Example Q75, N-(5-(2,2-dimethyl-2,3-dihydro-[1,4]dioxino[2,3-b]pyridin-6-yl)-4-((6-(methylsulfonyl)-4-(tetrahydro-2H-pyran-3-yl)pyridin-2-yl)amino)pyridin-2-yl)acetamide] | 742
0.026 | > 10000 | 1.15 | CC(=O)Nc1cc(Nc2cc(OCC3(C)COC3)cc(S(C)(=O)=O)n2)c(-c2ccc3c(n2)OCC(C)(C)O3)cn1 [Example Q98, N-(5-(2,2-dimethyl-2,3-dihydro-[1,4]dioxino[2,3-b]pyridin-6-yl)-4-((4-((3-methyloxetan-3-yl)methoxy)-6-(methylsulfonyl)pyridin-2-yl)amino)pyridin-2-yl)acetamide] | >8695
